Reference: patent US20100075993A1, “SMALL MOLECULE INHIBITORS AGAINST WEST NILE VIRUS REPLICATION” (DREXEL UNIVERSITY, priority 2005, published 2010)
pIC50: −log10 of the molar value.

What was measured:
[1] = tested on: WNV; test: WNV yield reduction assay (live virus) on BHK cells; type: cell-based, West Nile virus
Method: The antiviral assay for the 309-F6 compounds was conducted on BHK cells. The virus produced in the presence of 1% DMSO or various concentrations of compounds was tittered on Vero cells. The amount of virus relative to the 1% DMSO control was plotted on the y-axis; the concentration of the compound 309F6 is shown in μM on the x-axis. Data from two independently treated wells (Test 1 and Test 2) are shown.
To measure activity against live WNV, BHK cells were plated in 96-well plates at a concentration of 12,000 cells/well. One day later the cells were infected with WNV for 1 h at an MOI of 0.05. The cells were then washed once and re-fed with fresh DMEM containing dilutions of the test compound. Plates were then incubated at 37° C. for 48 h, the supernatant collected and the WNV produced titered. For virus titration, Vero cells were plated in 96-well plates at 8000 cells/well and incubated overnight. The Vero cell monolayer were then infected for 1 h with various dilutions of the WNV supernatant, overlaid with media containing 0.6% tragacanth (ICN, CA) and incubated at 37° C. for 48 h. The culture media was then aspirated; the plate was rinsed, air-dried, and fixed with 50 μl/well acetone/methanol (50:50). Viral foci were detected for enumeration by immunostaining as described previously (15).

[2] = tested on: BHK 26.5 replicon cells; test: MTT toxicity assay on BHK 26.5 replicon cells; type: cell-based
From the text: The HTS strategy follows the flowchart outlined in FIG. 2. 35,000 compounds were screened from a chemical library described below, using a cutoff of 50% reduction in luminescence readout as the criteria for further study. Upon completion of the screen, approximately 1100 compounds were selected, making the hit rate of 3%. This is considerably higher than expected, implying many false positive and/or cytotoxic compounds. Nevertheless, the compounds were picked out from the “daughter” plates and re-checked at a single 10 μM concentration. In addition, a duplicate 96 well plates were also plated and the toxicity of the compounds was determined in an MTT assay. Upon completion of these assays, most compounds were disqualified as either false positives or being toxicity to cells. As a result, only a small number of compounds were further analyzed directly from the “mother” plate stock. After IC50 determination and secondary assay to rule out luciferase inhibitors, 23 “hits” were identified.
(§1) Replicon-harboring cells were plated 96-well plates at 10,000 cells per well in MEM plus 3% FBS. 24 hours after plating, compounds were added to the wells by a Robotic liquid handler (Biomek NX) to a final concentration of 10 μM and 1% DMSO. For each 96 well plate, A1 to A8 were left open, H1 to H4 contained 1% DMSO, H5-H8 contained Mycophenolic acid (Sigma-Aldrich, St. Louis, Mo.), which was included as positive controls. After 24 hours of treatment, the media were removed and the luciferase activity expressed in the replicon cells was quantified. When cyto-toxicity was measured, duplicate 96 well plates were plated with BHK 26.5 replicon cells. One plate was used for luciferase assay and one plate was used for measuring toxicity using MTT assay.
(§2) Compound toxicity was determined by MTT assay. For the MTT assay, the cell medium was removed and the monolayers were incubated with 100 μl/well of 0.5 mg/ml MTT for 6 h at 37° C. The MTT solution was then aspirated and 100 μl/well of the 10% SDS (in 0.01N HCl) was added, followed by spectrophotometric quantitation (570 nm) of the insoluble MIT reaction product.

[3] = tested on: WNV replicon; test: WNV replicon luciferase assay in BHK 26.5 cells (HTS, re-test, IC50); type: cell-based, West Nile virus
Method: Ten micromolar concentrations of a selected compound were incubated with BHK 26.5 cells expressing luciferase whose activity is dependent upon WNV replicon replication (FIG. 1A). Primary “hits” were defined by the ability to reduce the amount of luciferase enzyme activity by more than 50%, compared to controls.
To quantify and rank the activity of the 23 remaining compound “hits”, a serial dilution of each compound was incubated with WNV replicon cells to determine the concentration that inhibits 50% of the luciferase readout (IC50s). […] A number of compounds had significant effect only at the highest, 10 μM concentration. However, several compounds had IC50s between 2 and 5 (Table 3), which is very reasonable for primary HTS hits from a compound library. Only a few compounds could cause 90% inhibition in the replicon cells at the concentrations tested.
as §1
Luciferase assay was performed by using the STEADY GLO reagent (Promega Corp. Madison, Wis.) according to the manufacturer's recommendation with slight modifications. Briefly, the culture media from the 96 wells were removed by dumping on paper towels.
100 μl of a 1:1 mixture of luciferase regent and culture media were added to the plate. After 5-minute incubation, the luminescence was read on a TOPCOUNT (PerkinElmer, Wellesley, Mass.).

[4] = toxicity (MTT, CC50) in BHK cells parallel to WNV infection assay; type: cell-based; conditions: hamster; highest concentration used 40 μM
Method: (§3) Several of these original compounds selected from the WNV replicon based screen were evaluated in an antiviral assay against WNV live virus. […] Modifications of this compound would be further investigated
(§4) The toxicity of 101-G7 was also measured by MTT assay and CC50 was calculated. 40 μM is highest concentration used.
as §2

[5] = tested on: BHK cells; test: as above; type: cell-based; conditions: MTT assay, 40 μM highest concentration used; read-out: Tox CC50
Method: as §3, §4, §2

[6] = tested on: WNV NS3 protein; test: Western blot of WNV protein in compound treated replicon cells; type: cell-based, West Nile virus; conditions: 48-hour treatment, up to 10 uM; MPA 2.5 ug/ml
Method: Mycophenolic acid (MPA) was used as positive control in the experiment. 4×10^4 cells were seeded in 24 well plates 24 hours before the various concentrations of compounds were added. After 48 hours of drug treatment, SDS-Sample buffer were added to the wells to lyse the cells. The protein samples were separated on SDS-PAGE and transferred to PVDF membrane. Viral protein was detected by probing with a monoclonal antibody against WNV. The same membrane was stripped and probed for beta-actin with the signals shown at the bottom of the blot.
Although it is reassuring that multiple tests have yielded similar positive results, the ability of the compounds to inhibit WNV replication was further assessed in secondary assays. In the western blot analysis shown in FIG. 5, total cell proteins were prepared from WNV replicon cells treated with the hit compounds and the viral protein NS3 was detected with a monoclonal […] against West Nile virus (15). The same blots were stripped and probed for beta-actin to show equal loading. […] When compared with the IC50 determined for these compounds in the luciferase assay, there was a good correlation between the luciferase reduction and the viral protein reduction.
Total cell lysates from replicon cells were harvested from replicon cells in 1×SDS sample buffer. The lysates were heated at 70° C. for 10 min in the presence of DTT before electrophoresis on a 10% Tris-glycine SDS polyacrylamide gel (Invitrogen) in 1× Tris-glycine buffer. The protein was transferred to PVDF (Invitrogen) membrane. Following the transfer, the membrane was rinsed once with TBS containing 0.5% Tween-20 (TBS-Tween) and blocked in TBS-Tween containing 5% non-fat milk for 1 h. After washing with PBS-Tween, the membrane was incubated with the primary WNV antibody (15) at 1:3000 dilutions for 1 h at 25° C. Prior to incubation with HRP conjugated-mouset IgG secondary antibody (Amersham, Life Science, Piscataway, N.J.) diluted 1:5000, the blot was washed in PBS-Tween. Following the secondary antibody incubation, the blot was washed again and treated with Super Signal Chemiluminescent Reagent (Pierce) according to the manufacturer's protocol and exposed to X-ray film. For controls, the blots were stripped and re-probed with an antibody to beta-actin (Chemicon), which was detected with a goat anti-mouse horseradish peroxidase conjugate.

[7] = tested on: WNV RNA; test: Northern blot of WNV RNA in compound treated replicon cells; type: cell-based, West Nile virus; conditions: 48-hour treatment, compounds 10 μM, MPA 2.5%
Method: FIG. 6 is a picture of a Northern blot gel of compound treated WNV replicon cells. 4×10^4 cells were seeded in 24 well plates. After 24 hours, the cells were treated with DMSO (lanes 2, 3) or the non-specific inhibitors, MPA (lane 1) or the compounds […] (lane 4), 18-B3 (lane 5) or 52-F2 (lane 6). After 48 hours, total RNA were isolated, separated on denaturing agrose gels and transferred to nylon membrane. Total RNA from a non-replicon cell (Huh-7 cell) was loaded in lane 7 as negative control. The membrane was probed with [^32P]-dCTP-labeled WNV NS5 and human beta-actin. The signal was quantified using a BioRad phosphoimager and WNV RNA level was calculated using beta-actin as a reference.
To confirm that the compounds can indeed inhibit WNV RNA replication, the WNV RNA level in the replicon cells treated with compounds by Northern blot analysis. Several hit compounds, 18-B3, 275-F9, 275-D9, 52-F2 and MPA were selected to treat the BHK 26.5 cells at 10 μM. […] The “hit” compounds 18-B3 and 275-F9 reduced WNV RNA by 1.5 and 2 fold, respectively (FIG. 6, lanes 4, 5). 18-B3 is one of the nine compounds that have similar structures while 275-F9 is one from another class of four compounds (Table 3).
Total cellular RNA was extracted by using the RNEASY kit (Qiagen NV, Netherlands). Northern blot analysis was done according to the protocol of Gu et al. 2002 (8). Briefly, 5 μg total RNA was electrophoresed through a 1.0% agarose gel containing 2.2M formaldehyde, transferred to a nylon membrane and immobilized by UV cross-linking (Stratagene, La Jolla, Calif.). After pre-hybridization in 5 ml of QuickHyb (Amersham, Piscataway, N.J. GE Healthcare, Giles, UK), [2P] dCTP-labeled probe made by random primer labeling of a 2.7 kb NS5 DNA fragment and a human beta-actin DNA at 65° C. The membrane was washed twice in 2×SSC/0.1% SDS for 10 min at room temperature and twice in 0.1×SSC/0.1% SDS for 15 min at 68° C. Membranes were exposed to Molecular Imager FX phosphoimager (BioRad, Hercules, Calif.) and the radiographic signals were collected and quantitated.

[8] = target: T1, luciferase enzyme (Photinus pyralis, UniProt P08659); test: in vitro luciferase enzyme assay with cell lysates; type: biochemical; conditions: lysate of WNV replicon cell, 30 minutes incubation, up to 10 μM
T1 construct: expressed in transfected cells; host or cells: BHK 26.5 (BHK cells harbouring the WNV subgenomic replicon with the Luc gene); used as cell lysate
Method: In two separate experiments, compounds were either tested with 3, 5, 10 μM or only 10 μM concentrations. The luciferase enzyme cell lysates were incubated with the indicated compounds for 30 minutes before luciferase substrate was added and the luminescence was measured. 1% DMSO was used as controls.
Although the initial HTS and the repeat assays have identified a number of compounds capable of reducing the luciferase activity produced in the WNV replicon BHK 26.5 cell line. It is conceivable that some of these inhibitors could have inhibited the luciferase enzyme itself rather than the WNV viral replication. To rule out this possibility, the identified compounds were tested in an in vitro luciferase enzyme assay by incubating the compounds with cell lysates prepared from the WNV replicon cell. […] The inhibition was not observed when the compounds were added immediately before luminescence reading, but after a 30-minute incubation of […] and the cell lysate, indicating a direct inhibition of the luciferase enzyme by the compounds.

T1 sequence (P08659 whole entry): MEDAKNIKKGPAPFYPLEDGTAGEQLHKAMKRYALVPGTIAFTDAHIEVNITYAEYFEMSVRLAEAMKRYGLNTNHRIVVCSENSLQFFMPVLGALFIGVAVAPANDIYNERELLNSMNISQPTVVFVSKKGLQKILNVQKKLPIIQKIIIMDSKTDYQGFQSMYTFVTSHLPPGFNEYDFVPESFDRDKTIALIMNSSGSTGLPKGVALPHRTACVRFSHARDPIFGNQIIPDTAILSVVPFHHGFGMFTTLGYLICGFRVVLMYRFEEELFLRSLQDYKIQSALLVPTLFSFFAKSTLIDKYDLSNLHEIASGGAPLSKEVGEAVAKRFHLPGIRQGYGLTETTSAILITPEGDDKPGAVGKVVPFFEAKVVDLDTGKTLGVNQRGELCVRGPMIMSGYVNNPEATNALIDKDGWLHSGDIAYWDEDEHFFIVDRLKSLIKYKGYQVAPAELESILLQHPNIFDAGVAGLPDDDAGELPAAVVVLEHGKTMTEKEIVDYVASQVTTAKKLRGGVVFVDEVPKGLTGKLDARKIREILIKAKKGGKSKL

| Structure (SMILES) | pIC50 ([1]; West Nile virus, BHK, read-out: IC50 in WNV infection assay, re-synthesized, three independent experiments in duplicate) | activity in the WNV infection assay ([1]; live WNV) | Toxicity (uM)* ([2]; MTT assay) | toxicity in replicon assays ([2]; re-synthesized compound, MTT) | pIC50 ([3]; West Nile virus, 24 h) | Fold decrease (HTS) ([3]; luciferase activity, 10 μM compound, 24 hours, BHK 26.5 cells) | Fold decrease (Re-test) ([3]; luciferase activity, re-checked at a single 10 μM concentration) | reducing the luciferase activity of the WNV replicon cell ([3]; re-synthesized compound, 24 and 48 hour incubation) | CC50 [4] | CC50 [5] | WNV NS3 protein level (western blot) [6] | WNV RNA reduction [7] | luciferase enzyme activity in cell lysate [8] |
| --- | --- | --- | --- | --- | --- | --- | --- | --- | --- | --- | --- | --- | --- |
| Cc1ccc(-c2csc(Nc3ccc(S(=O)(=O)Nc4cc(C)on4)cc3)n2)cc1 [Compound 101-G7, N-(5-Methyl-isoxazol-3-yl)-4-(4-p-tolyl-thiazol-2-ylamino)-benzenesulfonamide] | 4.82 to 5.52 | retained activity | >10 µM | about 80 μM | 5.30 | 6 Fold | 2 Fold | good activity | > 40 µM | > 40 µM | – | – | – |
| COc1c(C)c2c(c(O)c1C/C=C(\C)CCC(=O)O)C(=O)OC2 [MPA, Mycophenolic acid, reference compound] | – | – | – | – | – | – | – | – | – | – | reduced WNV NS3 protein level | more than five fold | did not reduce the luciferase activity |
